The values below come from patent publication US20230234969A1, “N-LINKED MACROCYCLIC 7-(PYRAZOL-5-YL)-INDOLE DERIVATIVES AS INHIBIORS OF MCL-1” (Janssen Pharmaceutica NV, priority 2020, published 2023).

The target in assay [1] is Myeloid Cell Leukemia 1 (Mcl-1) (Homo sapiens, UniProt Q07820). As to the kind of experiment: Terbium labeled Mcl-1 HTRF binding assay, displacement of Cy5-labeled BIM BH3 peptide. The conditions noted are these: 25 pM Tb-Mcl-1, 8 nM Cy5 Bim peptide, Ki=IC50/(1+[L]/Kd), [L]=8 nM, Kd=10 nM, 60 min room temperature, read-out: Tb-MCLl Ki. As for the experimental part:
Terbium labeled Myeloid Cell Leukemia 1 (Mcl-1) homogeneous time-resolved fluorescence (HTRF) binding assay utilizing the BIM BH3 peptide (H2N-(C/Cy5Mal) WIAQELRRIGDEFN-OH) as the binding partner for Mcl-1.
This assay evaluated inhibition of the BH3 domain: Mcl-1 interaction by measuring the displacement of Cy5-labeled BIM BH3 peptide (H2N—(C/Cy5Mal) WIAQELRRIGDEFN-OH) in the HTRF assay format.
The following assay and stock buffers were prepared for use in the assay: (a) Stock buffer: 10 mM Tris-HCl, pH=7.5+150 mM NaCl, filtered, sterilized, and stored at 4° C.; and (b) 1×assay buffer, where the following ingredients were added fresh to stock buffer: 2 mM dithiothreitol (DTT), 0.0025% Tween-20, 0.1 mg/mL bovine serum albumin (BSA). The 1×Tb-Mcl-1+Cy5 Bim peptide solution was prepared by diluting the protein stock solution using the 1×assay buffer (b) to 25 pM Tb-Mcl-1 and 8 nM Cy5 Bim peptide.
Using the Acoustic ECHO, 100 nL of 100×test compound(s) were dispensed into individual wells of a white 384-well Perkin Elmer Proxiplate, for a final compound concentration of 1× and final DMSO concentration of 1%. Inhibitor control and neutral control (NC, 100 nL of 100% DMSO) were stamped into columns 23 and 24 of assay plate, respectively. Into each well of the plate was then dispensed 10 μL of the 1×Tb-Mcl-1+Cy5 Bim peptide solution. The plate was centrifuged with a cover plate at 1000 rpm for 1 minute, then incubated for 60 minutes at room temperature with plates covered. The TR-FRET signal was read on an BMG PHERAStar FSX MicroPlate Reader at room temperature using the HTRF optic module (HTRF: excitation: 337 nm, light source: laser, emission A: 665 nm, emission B: 620 nm, integration start: 60 μs, integration time: 400 μs).
The BMG PHERAStar FSX MicroPlate Reader was used to measure fluorescence intensity at two emission wavelengths—665 nm and 620 nm—and report relative fluorescence units (RFU) for both emissions, as well as a ratio of the emissions (665 nm/620 nm)*10,000. The RFU values were normalized to percent inhibition as follows:
% inhibition=(((NC−IC)−(compound−IC))/(NC−IC))*100
where IC (inhibitor control, low signal)=mean signal of 1×Tb-MCl-1+Cy5 Bim peptide+inhibitor control or 100% inhibition of Mcl-1; NC (neutral control, high signal)=mean signal 1×Tb-MCl-1+Cy5 Bim peptide with DMSO only or 0% inhibition
An 11-point dose response curve was generated to determine IC50 values (using GenData) based on the following equation:
Y=Bottom+(Top−Bottom)/(1+10^((log IC50−X)*HillSlope))
where Y=% inhibition in the presence of X inhibitor concentration; Top=100% inhibition derived from the IC (mean signal of Mcl-1+inhibitor control); Bottom=0% inhibition derived from the NC (mean signal of Mcl-1+DMSO); Hillslope=Hill coefficient; and IC50=concentration of compound with 50% inhibition in relation to top/neutral control (NC).
In this assay [L]=8 nM and Kd=10 nM
Representative compounds of the present invention were tested according to the procedure as described above, with results as listed in the Table below (n.d. means not determined).
In general terms: TR-FRET usually uses a lanthanide donor and a delayed reading to cut background.

The subject of assay [2] is MOLP-8 human multiple myeloma cell line. In words: Caspase-Glo 3/7 assay in MOLP-8 cells (apoptosis induction). The class given is cell-based. To be noted: MOLP8 cells, 2 hours incubation at 37° C.; averaged values over all runs on all batches. From the text:
MCL-1 is a regulator of apoptosis and is highly over-expressed in tumor cells that escape cell death. The assay evaluates the cellular potency of small-molecule compounds targeting regulators of the apoptosis pathway, primarily MCL-1, Bfl-1, Bcl-2, and other proteins of the Bcl-2 family. Protein-protein inhibitors disrupting the interaction of anti-apoptotic regulators with BH3-domain proteins initiate apoptosis.
The Caspase-Glo® 3/7 Assay is a luminescent assay that measures caspase-3 and -7 activities in purified enzyme preparations or cultures of adherent or suspension cells. The assay provides a proluminescent caspase-3/7 substrate, which contains the tetrapeptide sequence DEVD. This substrate is cleaved to release aminoluciferin, a substrate of luciferase used in the production of light. Addition of the single Caspase-Glo® 3/7 Reagent in an “add-mix-measure” format results in cell lysis, followed by caspase cleavage of the substrate and generation of a “glow-type” luminescent signal.
This assay uses the MOLP-8 human multiple myeloma cell line, which is sensitive to MCL-1 inhibition.
Cell cultures were maintained between 0.2 and 2.0×10^6 cells/mL. The cells were harvested by collection in 50 mL conical tubes. The cells were then pelleted at 500 g for 5 mins before removing supernatant and resuspension in fresh pre-warmed culture medium. The cells were counted and diluted as needed.
The assay reagent was prepared by transferring the buffer solution to the substrate vial and mixing. The solution may be stored for up to 1 week at 4° C. with negligible loss of signal.
Compounds were delivered in assay-ready plates (Proxiplate) and stored at −20° C. Assays always include 1 reference compound plate containing reference compounds. The plates were spotted with 40 nL of compounds (0.5% DMSO final in cells; serial dilution; 30 μM highest conc. 1/3 dilution, 10 doses, duplicates). The compounds were used at room temperature and 4 μL of pre-warmed media was added to all wells except column 2 and 23. The negative control was prepared by adding 1% DMSO in media. The positive control was prepared by adding the appropriate positive control compound in final concentration of 60 μM in media. The plate was prepared by adding 4 μL negative control to column 23, 4 μL positive control to column 2 and 4 μL cell suspension to all wells in the plate. The plate with cells was then incubated at 37° C. for 2 hours. The assay signal reagent is the Caspase-Glo solution described above, and 8 μL was added to all wells. The plates were then sealed and measured after 30 minutes.
The activity of a test compound was calculated as percent change in apoptosis induction as follows:
[formula] % Effect (AC50)=100−((sample−LC)/(HC−LC))*100
% Control=(sample/HC)*100
% Control min=(sample−LC)/(HC−LC)*100

Sequence of Myeloid Cell Leukemia 1 (Mcl-1) (Q07820 whole entry): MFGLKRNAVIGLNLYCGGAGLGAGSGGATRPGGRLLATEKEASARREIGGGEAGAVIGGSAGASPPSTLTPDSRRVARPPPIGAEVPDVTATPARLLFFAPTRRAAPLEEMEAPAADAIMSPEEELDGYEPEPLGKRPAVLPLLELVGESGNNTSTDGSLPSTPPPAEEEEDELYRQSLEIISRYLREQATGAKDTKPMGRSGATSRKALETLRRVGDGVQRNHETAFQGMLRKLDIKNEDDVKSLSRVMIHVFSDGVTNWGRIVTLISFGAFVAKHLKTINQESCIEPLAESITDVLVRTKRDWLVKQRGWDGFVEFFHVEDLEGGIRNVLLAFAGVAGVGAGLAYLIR

The term Ki denotes a measure of affinity in units of concentration, obtained from inhibition or displacement. The term AC50 denotes the midpoint of the concentration-response curve, whichever way the signal moves. Read a low AC50 as greater potency. In the case of `CCn1c(C(=O)O)c2c3ccc(Cl)c(c31)-c1c(C)c(C)nn1CCCc1cc(n(CCN(C)C)n1)CCc1cc(c3ccc(F)cc3c1)OCCC2` (single isomer, unassigned) [Compound 7], the Ki in assay [1] worked out at 0.052 nM. Moreover, the AC50 in assay [2] is 16 nM.

On to `CCn1c(C(=O)O)c2c3ccc(Cl)c(c31)-c1c(C)c(C)nn1CCCc1cc(n(CCN(C)C)n1)CCc1cc(c3ccc(F)cc3c1)OCCC2` (single isomer, unassigned) [Compound 8], for which the Ki in assay [1] turned out to be 8.06 nM. Besides, the AC50 in assay [2] turned out to be 1560 nM.

`CCn1c(C(=O)O)c2c3ccc(Cl)c(c31)-c1c(C)c(C)nn1CCCc1cc(n(CCOC)n1)CCc1cc(c3ccc(F)cc3c1)OCCC2` (single isomer, unassigned) [Compound 10]: the inhibitory constant (Ki) in assay [1] was 3.06 nM. Further, the AC50 in assay [2] is 3060 nM.

Consider `Cc1nn2c(c1C)-c1c(Cl)ccc3c(c(C(=O)O)n(C)c13)CCCOc1cc(cc3ccccc13)SCc1cc(nn1C)CCC2` (single isomer, unassigned) [Compound 1], for which, in assay [1], the Ki is 0.09 nM. The AC50 in assay [2] came out at 67 nM.

Take `COCCOCCn1c(C(=O)O)c2c3ccc(Cl)c(c31)-c1c(C)c(C)nn1CCCc1cc(n(C)n1)CCc1cc(c3ccc(F)cc3c1)OCCC2` (single isomer, unassigned) [Compound 5]: in assay [1], the Ki came to 0.027 nM. The AC50 in assay [2] was 27 nM.

As for `CCn1c(C(=O)O)c2c3ccc(Cl)c(c31)-c1c(C)c(C)nn1CCCc1cc(n(CCOC)n1)CCc1cc(c3ccc(F)cc3c1)OCCC2` (single isomer, unassigned) [Compound 9], the Ki in assay [1] is 0.061 nM. In addition, in assay [2], the AC50 was 53 nM.

In the case of `COCCOCCn1c(C(=O)O)c2c3ccc(Cl)c(c31)-c1c(C)c(C)nn1CCCc1cc(n(C)n1)CCc1cc(c3ccc(F)cc3c1)OCCC2` (single isomer, unassigned) [Compound 6], the Ki in assay [1] amounted to 1.93 nM. This molecule registered an AC50 in assay [2] of 1930 nM.

In the case of `CCn1c(C(=O)O)c2c3ccc(Cl)c(c31)-c1c(C)c(C)nn1CCCc1cc(n(C)n1)CCc1cc(c3ccc(F)cc3c1)OCCC2` (single isomer, unassigned) [Compound 3], the Ki in assay [1] came out at 0.043 nM. The AC50 in assay [2] worked out at 36 nM.

Regarding `Cc1nn2c(c1C)-c1c(Cl)ccc3c(c(C(=O)O)n(C)c13)CCCOc1cc(cc3ccccc13)SCc1cc(nn1C)CCC2` (single isomer, unassigned) [Compound 2], the inhibitory constant (Ki) in assay [1] was found to be 3.21 nM. In assay [2], this molecule returned an AC50 of 2710 nM.

As for `CCn1c(C(=O)O)c2c3ccc(Cl)c(c31)-c1c(C)c(C)nn1CCCc1cc(n(C)n1)CCc1cc(c3ccc(F)cc3c1)OCCC2` (single isomer, unassigned) [Compound 4], the Ki in assay [1] is 33.7 nM. The molecule further came in with an AC50 in assay [2] of 13100 nM.
